Here are results for 8 compounds from PubChem BioAssay AID2060493 (Molecular Pharmacology Branch, DTP, NCI, 2025).

SMILES strings stand for the structures. “And” between values parts separate entries of the source, which are not always exact repeats. Equal values may be shown once.

What is called viability, T/C is the ratio of treated to control. The term IC50 denotes the concentration needed to halve the response being measured.

The assay has as its system 616215-338-R-J1-PDC tumor spheroids, viability. Briefly: Anticancer human tumor 616215-338-R-J1-PDC patient-derived colon adenocarcinoma cell line growth inhibition [GQUAD]. Conditions: spheroids with HUVEC and MSC; for viability, T/C: stronger effect = lower value. The text has this: DNA G-quadruplex Stabilizer Agents in Combinations in Complex Spheroids
A high-throughput screen of multi-cell type tumor spheroids was designed to identify active combinations of DNA G-quadruplex stabilizer agents and targeted small molecules. Complex spheroids include a stromal component modeled by human endothelial cells (HUVEC) and fibroblasts modeled by human mesenchymal stem cells (MSCs). The concentration ranges selected for each drug and investigational agent were based upon clinically achievable concentrations if the clinical Cmax of the agent was known.
Compounds. The drugs and investigational agents: pidnarulex (CX-5461; NSC782164), APTO-253 (NSC789042), BRACO-19 (NSC847499), peposertib (NSC802822), ceralasertib (NSC780249), elimusertib (NSC800525), camonsertib (NSC841442), AZD-1390 (NSC803789), olaparib (NSC753686), talazoparib (NSC767125), ART-558 (NSC835418), sotorasib (NSC818433), MRTX-1133 (NSC836407), SN-38 (NSC673596), topotecan (NSC609699), etoposide (NSC141540), doxorubicin (NSC123127), gemcitabine (NSC613327), 5-fluorouracil (NSC19893), paclitaxel (NSC125973), vemurafenib (NSC761431), panobinostat (NSC761190), R-306465 (JNJ-16241199; NSC773264), adavosertib (NSC754352), TP-3654 (NSC805149), carboplatin (NSC241240), KSQ-4279 (NSC840948), and staurosporine (NSC755774) were obtained from the National Cancer Institute (NCI) Developmental Therapeutics Program Chemical Repository (34). The FDA-approved anticancer drug set is available from the NCI Developmental Therapeutics Program. […] The stock solutions were prepared in dimethyl sulfoxide (DMSO, Sigma-Aldrich, St. Louis, MO, cat. D2650) at 800-fold the tested concentration and stored at -70 degrees C prior to their use. All drugs and investigational agents were tested over a range starting from a high concentration at or near the clinical Cmax and decreasing in half-log increments. If the clinical Cmax for an agent had not been determined, the highest concentration tested was 10 microM.
2.3 Cell Culture. All cells were maintained in an incubator at 37 degrees C and 5% CO2 with 95% humidity. The PDC lines were cultured according to standard operating procedures established by the NCI PDMR. All PDCs were thawed and cultured in Matrigel-coated flasks prepared with a working solution of 1X Ham's F-12 nutrient mix, without supplementation (Invitrogen, cat. 11765054), 100 U/mL penicillin-streptomycin (Invitrogen, cat. 15140122), and 2.5% Matrigel (Corning Inc., cat. 354248) for the first three passages. The 857933-349-R-J2-PDC line was cultured in 6C/Colon 1B media, which includes advanced DMEM/F-12 (Thermo Fisher Scientific, cat. 12634028), 10 mM HEPES (Thermo Fisher Scientific, cat. 15630080), 1X GlutaMAX supplement (Thermo Fisher Scientific, cat. 35050061), 0.1 mg/mL primocin (InvivoGen, cat. ant-pm-2), 10% defined fetal bovine serum, heat inactivated (HyClone Laboratories Inc., cat. SH30070.03HI), 50% L-WRN conditioned media (ATCC, cat. CRL-3276), 1.25 mM N-Acetyl-L-cysteine (Sigma-Aldrich, cat. A9165), 10 mM nicotinamide (Sigma-Aldrich, cat. N0636), 1X B-27 supplement (Thermo Fisher Scientific, cat. 17504044), 1X N-2 supplement (Thermo Fisher Scientific, cat. 17502048), 10 microM Y-27632 dihydrochloride (Tocris Bioscience, cat. 1254), and 50 ng/mL human EGF recombinant protein (Thermo Fisher Scientific, cat. PHG0311). The 485176-168-R4-J1-PDC line was cultured in Panc media, which includes all 6C/Colon 1B media components plus 100 ng/mL human FGF-10 (Thermo Fisher Scientific, cat. 100-26), 500 nM SB-431542 (Selleckchem, cat. S1067), and gastrin (Tocris, cat. 3006).
[…]
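Note: spheroids exposed to agents for 7 days before readout.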
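Throughout, for viability, T/C: percent viability relative to DMSO vehicle control wells taken as 100%.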

For `CCCS(=O)(=O)Nc1ccc(F)c(C(=O)c2c[nH]c3ncc(-c4ccc(Cl)cc4)cc23)c1F`, the viability, T/C (compound 0.0316 µM) was 100% (2×) and 106%; the viability, T/C (compound 0.1 µM) is 103% and 95.3% and 98.6%; the viability, T/C (compound 0.316 µM) is 97.9% and 100% and 97.8%; the viability, T/C (compound 1 µM) was 97% and 88.9% and 91.9%; the viability, T/C (compound 3.16 µM) is 89.7% and 88.8% and 104%; the viability, T/C (compound 10 µM) is 3.68% and 3.75% and 6.39%. In addition, where the note is “curve of compound”, the IC50 was 5380 nM and 5350 nM and 5840 nM.
As for `COc1ccc([C@@H](O)c2cc(-c3ncnc4cc(N5CCOCC5)ccc34)c(F)cc2Cl)nn1` + Cc1cnc(CNC(=O)c2c(=O)c3ccc(N4CCCN(C)CC4)nc3n3c2sc2ccccc23)cn1, the 50% inhibitory concentration (IC50) reads like this: (curve of first compound, second compound 0.0316 µM) 798 nM; (curve of first compound, second compound 0.1 µM) 770 nM; (curve of first compound, second compound 0.316 µM) less than 31.6 nM; (curve of first compound, second compound 1 µM) less than 31.6 nM; (curve of first compound, second compound 3.16 µM) less than 31.6 nM; (curve of first compound, second compound 10 µM) less than 31.6 nM. Also, the viability, T/C by setting is: (second compound 0.0316 µM, first compound 0.0316 µM) 102%; (second compound 0.0316 µM, first compound 0.1 µM) 92.4%; (second compound 0.0316 µM, first compound 0.316 µM) 93.9%; (second compound 0.0316 µM, first compound 1 µM) 39.3%; (second compound 0.0316 µM, first compound 3.16 µM) 30.1%; (second compound 0.0316 µM, first compound 10 µM) 25.3%. Further, the viability, T/C by setting is: (second compound 0.1 µM, first compound 0.0316 µM) 59.2%; (second compound 0.1 µM, first compound 0.1 µM) 74.2%; (second compound 0.1 µM, first compound 0.316 µM) 61.2%; (second compound 0.1 µM, first compound 1 µM) 42.2%; (second compound 0.1 µM, first compound 3.16 µM) 39.9%; (second compound 0.1 µM, first compound 10 µM) 24.6%. In addition, the viability, T/C is, setting by setting: (second compound 0.316 µM, first compound 0.0316 µM) 43.6%; (second compound 0.316 µM, first compound 0.1 µM) 46.8%; (second compound 0.316 µM, first compound 0.316 µM) 43%; (second compound 0.316 µM, first compound 1 µM) 27.9%; (second compound 0.316 µM, first compound 3.16 µM) 26.4%; (second compound 0.316 µM, first compound 10 µM) 14.6%. In addition, the viability, T/C is 25.3% (second compound 1 µM, first compound 0.0316 µM); 28.6% (second compound 1 µM, first compound 0.1 µM); 30.5% (second compound 1 µM, first compound 0.316 µM); 21.8% (second compound 1 µM, first compound 1 µM); 22.8% (second compound 1 µM, first compound 3.16 µM); 7.7% (second compound 1 µM, first compound 10 µM). Further, the viability, T/C runs as follows: (second compound 3.16 µM, first compound 0.0316 µM) 23.1%; (second compound 3.16 µM, first compound 0.1 µM) 26.9%; (second compound 3.16 µM, first compound 0.316 µM) 30.1%; (second compound 3.16 µM, first compound 1 µM) 25%; (second compound 3.16 µM, first compound 3.16 µM) 15.9%; (second compound 3.16 µM, first compound 10 µM) 3.64%. The viability, T/C was 33.8% (second compound 10 µM, first compound 0.0316 µM); 25.8% (second compound 10 µM, first compound 0.1 µM); 32.3% (second compound 10 µM, first compound 0.316 µM); 20% (second compound 10 µM, first compound 1 µM); 15.4% (second compound 10 µM, first compound 3.16 µM); 3.43% (second compound 10 µM, first compound 10 µM).
As to `Cc1[nH]c2ccccc2c1CCNCc1ccc(/C=C/C(=O)NO)cc1`, the viability, T/C is 103% and 102% and 97.5% (compound 0.000999 µM); 95.9% and 93.8% and 101% (compound 0.00316 µM); 92.1% and 107% and 103% (compound 0.00999 µM); 108% and 94.3% and 87.4% (compound 0.0316 µM); 69.3% and 72.3% and 79.7% (compound 0.0999 µM); 17.6% and 10.8% and 27.7% (compound 0.316 µM). For the same compound, the concentration for half-maximal inhibition (IC50) (curve of compound) is 154 nM and 151 nM and 189 nM.
Turning to `COc1cc(C2c3cc4c(cc3C(OC3OC5COC(C)OC5C(O)C3O)C3COC(=O)C23)OCO4)cc(OC)c1O` (configuration not stated), the viability, T/C was 106% and 97.9% and 101% (compound 0.0316 µM); 93% and 95.6% and 92.9% (compound 0.1 µM); 72.8% (2×) and 63.2% (compound 0.316 µM); 41.4% and 57.3% and 43.4% (compound 1 µM); 29.8% and 39.9% and 37.9% (compound 3.16 µM); 24.3% and 21.6% and 20% (compound 10 µM). Further, the half-maximal inhibitory concentration (IC50) (curve of compound) was 749 nM and 1560 nM and 781 nM.
Take `Cc1cnc(CNC(=O)c2c(=O)c3ccc(N4CCCN(C)CC4)nc3n3c2sc2ccccc23)cn1`: the viability, T/C is, setting by setting: (compound 0.0316 µM) 104% [middle of 12 runs]; (compound 3.16 µM) 31.6% [middle of 12 runs]; (compound 10 µM) 25.1% [middle of 12 runs].
On to `COc1cccc2c1C(=O)c1c(O)c3c(c(O)c1C2=O)CC(O)(C(=O)CO)CC3OC1CC(N)C(O)C(C)O1` (configuration not stated), for which the viability, T/C is 99.9% and 99.3% and 97.8% (compound 0.0316 µM); 86.1% and 94.3% and 81% (compound 0.1 µM); 45.8% and 52.1% and 60.8% (compound 0.316 µM); 33.6% and 31% and 57.7% (compound 1 µM); 24.8% and 24.6% and 27.7% (compound 3.16 µM); 1.26% and 0.35% and 6.04% (compound 10 µM). Where the note is “curve of compound”, the IC50 was 411 nM and 470 nM and 878 nM.
`COc1ccc([C@@H](O)c2cc(-c3ncnc4cc(N5CCOCC5)ccc34)c(F)cc2Cl)nn1`: the viability, T/C (compound 0.0316 µM) is 115% and 98% and 99.7%; the viability, T/C (compound 0.1 µM) was 101% and 102% and 89.1%; the viability, T/C (compound 0.316 µM) was 98% and 106% and 97.2%; the viability, T/C (compound 1 µM) was 96.9% and 97.6% and 92.6%; the viability, T/C (compound 3.16 µM) is 97.4% and 100% and 94.8%; the viability, T/C (compound 10 µM) is 56.7% and 49% and 51.9%. In addition, the 50% inhibitory concentration (IC50) (curve of compound) was > 10000 nM and 9780 nM.
For `C#Cc1c(F)ccc2cc(O)cc(-c3ncc4c(N5CC6CCC(C5)N6)nc(OCC56CCCN5CC(F)C6)nc4c3F)c12` (configuration not stated), the viability, T/C runs as follows: (compound 0.0316 µM) 100% and 113% and 106%; (compound 0.1 µM) 90.1% and 98.3% and 110%; (compound 0.316 µM) 102% and 104% and 110%; (compound 1 µM) 80.2% and 106% and 104%; (compound 3.16 µM) 68% and 106% and 91.7%; (compound 10 µM) 45.8% and 63.5% and 59.2%. In addition, the 50% inhibitory concentration (IC50) (curve of compound) is 8040 nM and > 10000 nM.
